Data taken from patent US4668621A, “Detecting blood clotting factors with immobilized fibrinogen and labeled fibrinogen” (Wake Forest University, priority 1985, dated 1987).

Assays:
[1] = molecular target: T1, thrombin (Homo sapiens, UniProt P00734); assay: Inhibition of thrombin in the solid-phase thrombin assay; type: biochemical; conditions: 80 min assay
T1 construct: additional factors necessary for cleavage of prothrombin to thrombin
Experimental: (§1) In the first assay, microtiter plates were coated with 150 μl per well of 50 μg/ml of fibrinogen in 10 mM Tris-acetate buffered saline, pH 7.6 (TABS) containing 10 mM EDTA overnight at 4° C. The solution was removed from the plate, and 100 μl of a 10 μg/ml solution of peroxidase-fibrinogen in 3.8 mg/ml bovine serum albumin (BSA) in TABS containing 10 mM calcium chloride was added to the well. 50 μl of thrombin diluted from 0.1 to 0.00078 NIH units/ml (30-0.25 ng/ml) was added to each well for various times from 0-160 min, after which the solution was washed from the plate. Peroxidase assay was performed using ortho-phenylenediamine as the indicator dye, with 11 min of incubation.
In the next assay, benzamidine and D-phenylalanyl-L-prolyl-L-arginine chloromethyl ketone (PPACK) were added to thrombin at the start of the assay. […] The percent inhibition can be calculated from the increased thrombin concentration required to obtain equivalent activity, as
% inhibition=100 * (1-To/Ti)
where To is the thrombin concentration yielding an O.D.=1 in the absence of inhibitor, and Ti is the thrombin concentration yielding an O.D.=1 in the presence of a given inhibitor concentration.

[2] = tested on: fibrinogen; assay: Thrombin assay: peroxidase-fibrinogen bound to fibrinogen-coated microtiter plate; type: biochemical, human; conditions: for [Thrombin] for O.D. = 1: unit not printed here (preceding table: NIH units/ml)
Experimental: This was prepared by the method of Nakane and Kawaoi (J. Histochem. Cytochem (1974) 22:1084) using 40 mg of horseradish peroxidase and 300 mg of human fibrinogen. The molar ratio of peroxidase to fibrinogen in the final product was 0.39. This was diluted with unlabeled fibrinogen to a concentration of 0.72 mg/ml of fibrinogen with a molar ratio of 0.12 moles of peroxidase per mole of fibrinogen, stored in 50% glycerol at -20° C.
as §1, with “incubation. Optical density was measured at 490 nm using a microtiter plate reader, with the following results:” for “incubation.”
Not only the endpoint (O.D.>2), but also the partial reaction ([…])can be used as a measure of thrombin activity. The penultimate value prior to the endpoint, or an approximate extrapolation to the concentration of thrombin yielding an O.D. value of 1 can be used to standardize this assay. For the above experiment, this value is reached at thrombin concentrations of: […]

N=C(N)c1ccccc1 [Benzamidine, benzamidine]
% Inhibition ([1]; [Benzamidine] 0.5 mM): 8%
% Inhibition ([1]; [Benzamidine] 1 mM): 41%
% Inhibition ([1]; [Benzamidine] 2 mM): 55%
% Inhibition ([1]; [Benzamidine] 5 mM): 75%
% Inhibition ([1]; [Benzamidine] 10 mM): 84%
% Inhibition ([1]; [Benzamidine] 20 mM): 97%

N=C(N)NCCC[C@H](NC(=O)[C@@H]1CCCN1C(=O)[C@H](N)Cc1ccccc1)C(=O)CCl [PPACK, D-phenylalanyl-L-prolyl-L-arginine chloromethyl ketone]
% Inhibition ([1]; [PPACK] .005 nM): 11%
% Inhibition ([1]; [PPACK] .01 nM): 19%
% Inhibition ([1]; [PPACK] .02 nM): 43%
% Inhibition ([1]; [PPACK] .05 nM): 62%
% Inhibition ([1]; [PPACK] .1 nM): 79%
% Inhibition ([1]; [PPACK] .2 nM): 83%
% Inhibition ([1]; [PPACK] .5 nM): 95%

Thrombin
[Thrombin] for O.D. = 1 ([2]; incubation time 10 min): > 0.03
[Thrombin] for O.D. = 1 ([2]; incubation time 20 min): 0.02
[Thrombin] for O.D. = 1 ([2]; incubation time 40 min): 0.005
[Thrombin] for O.D. = 1 ([2]; incubation time 80 min): 0.002
[Thrombin] for O.D. = 1 ([2]; incubation time 160 min): 0.0008
Optical density at 490 nm ([2]; thrombin .00026 NIH units/ml, incubation 0 min): 0.20
Optical density at 490 nm ([2]; thrombin .00026 NIH units/ml, incubation 10 min): 0.24
Optical density at 490 nm ([2]; thrombin .00026 NIH units/ml, incubation 20 min): 0.19
Optical density at 490 nm ([2]; thrombin .00026 NIH units/ml, incubation 40 min): 0.25
Optical density at 490 nm ([2]; thrombin .00026 NIH units/ml, incubation 80 min): 0.32
Optical density at 490 nm ([2]; thrombin .00026 NIH units/ml, incubation 160 min): 0.24
Optical density at 490 nm ([2]; thrombin .0005 NIH units/ml, incubation 0 min): 0.21
Optical density at 490 nm ([2]; thrombin .0005 NIH units/ml, incubation 10 min): 0.21
Optical density at 490 nm ([2]; thrombin .0005 NIH units/ml, incubation 20 min): 0.16
Optical density at 490 nm ([2]; thrombin .0005 NIH units/ml, incubation 40 min): 0.14
Optical density at 490 nm ([2]; thrombin .0005 NIH units/ml, incubation 80 min): 0.18
Optical density at 490 nm ([2]; thrombin .0005 NIH units/ml, incubation 160 min): 0.60
Optical density at 490 nm ([2]; thrombin .0010 NIH units/ml, incubation 0 min): 0.22
Optical density at 490 nm ([2]; thrombin .0010 NIH units/ml, incubation 10 min): 0.15
Optical density at 490 nm ([2]; thrombin .0010 NIH units/ml, incubation 20 min): 0.18
Optical density at 490 nm ([2]; thrombin .0010 NIH units/ml, incubation 40 min): 0.23
Optical density at 490 nm ([2]; thrombin .0010 NIH units/ml, incubation 80 min): 0.37
Optical density at 490 nm ([2]; thrombin .0010 NIH units/ml, incubation 160 min): 1.55
Optical density at 490 nm ([2]; thrombin .0021 NIH units/ml, incubation 0 min): 0.25
Optical density at 490 nm ([2]; thrombin .0021 NIH units/ml, incubation 10 min): 0.18
Optical density at 490 nm ([2]; thrombin .0021 NIH units/ml, incubation 20 min): 0.18
Optical density at 490 nm ([2]; thrombin .0021 NIH units/ml, incubation 40 min): 0.18
Optical density at 490 nm ([2]; thrombin .0021 NIH units/ml, incubation 80 min): 1.02
Optical density at 490 nm ([2]; thrombin .0021 NIH units/ml, incubation 160 min): > 2
Optical density at 490 nm ([2]; thrombin .0042 NIH units/ml, incubation 0 min): 0.23
Optical density at 490 nm ([2]; thrombin .0042 NIH units/ml, incubation 10 min): 0.22
Optical density at 490 nm ([2]; thrombin .0042 NIH units/ml, incubation 20 min): 0.26
Optical density at 490 nm ([2]; thrombin .0042 NIH units/ml, incubation 40 min): 0.87
Optical density at 490 nm ([2]; thrombin .0042 NIH units/ml, incubation 80 min): > 2
Optical density at 490 nm ([2]; thrombin .0042 NIH units/ml, incubation 160 min): > 2
Optical density at 490 nm ([2]; thrombin .0083 NIH units/ml, incubation 0 min): 0.30
Optical density at 490 nm ([2]; thrombin .0083 NIH units/ml, incubation 10 min): 0.42
Optical density at 490 nm ([2]; thrombin .0083 NIH units/ml, incubation 20 min): 0.40
Optical density at 490 nm ([2]; thrombin .0083 NIH units/ml, incubation 40 min): 1.67
Optical density at 490 nm ([2]; thrombin .0083 NIH units/ml, incubation 80 min): > 2
Optical density at 490 nm ([2]; thrombin .0083 NIH units/ml, incubation 160 min): > 2
Optical density at 490 nm ([2]; thrombin .017 NIH units/ml, incubation 0 min): 0.31
Optical density at 490 nm ([2]; thrombin .017 NIH units/ml, incubation 10 min): 0.30
Optical density at 490 nm ([2]; thrombin .017 NIH units/ml, incubation 20 min): 0.91
Optical density at 490 nm ([2]; thrombin .017 NIH units/ml, incubation 40 min): > 2
Optical density at 490 nm ([2]; thrombin .017 NIH units/ml, incubation 80 min): > 2
Optical density at 490 nm ([2]; thrombin .017 NIH units/ml, incubation 160 min): > 2
Optical density at 490 nm ([2]; thrombin .033 NIH units/ml, incubation 0 min): 0.41
Optical density at 490 nm ([2]; thrombin .033 NIH units/ml, incubation 10 min): 0.52
Optical density at 490 nm ([2]; thrombin .033 NIH units/ml, incubation 20 min): 1.24
Optical density at 490 nm ([2]; thrombin .033 NIH units/ml, incubation 40 min): > 2
Optical density at 490 nm ([2]; thrombin .033 NIH units/ml, incubation 80 min): > 2
Optical density at 490 nm ([2]; thrombin .033 NIH units/ml, incubation 160 min): > 2
